Calls of active or inactive are those of the source. The rule behind the calls is not given here.
Legend:
[1] = test system: HEK293; assay: Transactivation of NF-kappaB expressed in HEK293 cells co-transfected TLR2/TLR3/TLR4/TLR5/TLR7/TLR8/TLR9/Nod-1 by alkaline phosphatase reporter gene assay; format: cell-based
[2] = test system: Mus musculus; assay: Adjuvantic activity in CF-1 mouse assessed as increase in bovine alpha-lactalbumin-elicited antibodies production at 50 ug, im followed by booster dose administered on day 14 measured after 21 days by surface-plasmon resonance; format: functional, organism-based
[3] = test system: Mus musculus; assay: Adjuvantic activity in CF-1 mouse assessed as increase in bovine alpha-lactalbumin-elicited IgG2a production at 50 ug, im followed by booster dose administered on day 14 measured after 21 days; format: functional, organism-based
[4] = test system: Mus musculus; assay: Adjuvantic activity in CF-1 mouse assessed as increase in bovine alpha-lactalbumin-elicited IgG1 production at 50 ug, im followed by booster dose administered on day 14 measured after 21 days; format: functional, organism-based
[5] = test system: HEK293; assay: Transactivation of NF-kappaB expressed in HEK293 cells by alkaline phosphatase reporter gene assay; format: cell-based
[6] = test system: Blood; assay: Pro-inflammatory activity in human whole blood assessed as TNF-alpha production upto 50 uM; format: functional, tissue-based
[7] = test system: Blood; assay: Pro-inflammatory activity in human whole blood assessed as IL1-beta production upto 50 uM; format: functional, tissue-based
[8] = test system: Blood; assay: Pro-inflammatory activity in human whole blood assessed as IL-6 production upto 50 uM; format: functional, tissue-based
[9] = test system: Blood; assay: Pro-inflammatory activity in human whole blood assessed as IL-8 production upto 50 uM; format: functional, tissue-based
[10] = test system: Blood; assay: Pro-inflammatory activity in human whole blood assessed as IL-12 production upto 50 uM; format: functional, tissue-based
[11] = test system: Blood; assay: Pro-inflammatory activity in human whole blood assessed as IL-18 production upto 50 uM; format: functional, tissue-based
[12] = test system: Blood; assay: Antiinflammatory activity in human whole blood assessed as IL-10 production upto 50 uM; format: functional, tissue-based
[13] = test system: PBMC; assay: Immunostimulatory activity against human PBMC by transcriptional profiling; format: functional, cell-based
[14] = biological target: T1, C-C chemokine receptor type 1 (Homo sapiens, UniProt P32246); assay: Agonist activity at human CCR1 expressed in CHO cells by cellular dielectric spectroscopy; format: functional, cell-based
T1 sequence (P32246 whole entry): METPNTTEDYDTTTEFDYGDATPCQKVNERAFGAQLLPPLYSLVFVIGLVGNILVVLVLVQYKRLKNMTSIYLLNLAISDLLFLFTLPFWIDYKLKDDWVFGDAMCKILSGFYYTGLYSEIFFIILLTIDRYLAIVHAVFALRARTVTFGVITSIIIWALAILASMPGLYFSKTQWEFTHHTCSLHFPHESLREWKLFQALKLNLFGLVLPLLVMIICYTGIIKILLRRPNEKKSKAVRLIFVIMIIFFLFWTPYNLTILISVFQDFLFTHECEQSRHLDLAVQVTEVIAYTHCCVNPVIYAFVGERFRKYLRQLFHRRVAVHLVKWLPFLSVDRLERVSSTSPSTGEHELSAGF

[15] = biological target: C-C chemokine receptor type 2 (Homo sapiens) (UniProt P41597); assay: Agonist activity at CCR2 expressed in CHO cells at 10^-6 to 10^-5 M by cellular dielectric spectroscopy; format: functional, cell-based
[16] = biological target: T2, C-C chemokine receptor type 3 (Homo sapiens) (UniProt P51677); assay: Agonist activity at CCR3 expressed in CHO cells at 10^-6 to 10^-5 M by cellular dielectric spectroscopy; format: functional, cell-based
T2 sequence (whole entry): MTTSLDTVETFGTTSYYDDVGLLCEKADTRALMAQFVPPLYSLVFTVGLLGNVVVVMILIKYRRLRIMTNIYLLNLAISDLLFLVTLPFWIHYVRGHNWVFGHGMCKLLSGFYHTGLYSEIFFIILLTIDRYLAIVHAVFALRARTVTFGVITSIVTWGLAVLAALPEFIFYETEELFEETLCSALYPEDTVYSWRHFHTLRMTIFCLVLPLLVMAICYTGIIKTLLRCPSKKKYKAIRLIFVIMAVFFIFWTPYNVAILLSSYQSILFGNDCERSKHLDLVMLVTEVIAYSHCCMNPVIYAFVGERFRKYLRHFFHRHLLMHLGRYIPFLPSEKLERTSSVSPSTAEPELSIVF

[17] = biological target: T3, C-X-C chemokine receptor type 2 (Homo sapiens) (UniProt P25025); assay: Agonist activity at CXCR2 expressed in CHO cells at 10^-6 to 10^-5 M by cellular dielectric spectroscopy; format: functional, cell-based
T3 sequence (whole entry): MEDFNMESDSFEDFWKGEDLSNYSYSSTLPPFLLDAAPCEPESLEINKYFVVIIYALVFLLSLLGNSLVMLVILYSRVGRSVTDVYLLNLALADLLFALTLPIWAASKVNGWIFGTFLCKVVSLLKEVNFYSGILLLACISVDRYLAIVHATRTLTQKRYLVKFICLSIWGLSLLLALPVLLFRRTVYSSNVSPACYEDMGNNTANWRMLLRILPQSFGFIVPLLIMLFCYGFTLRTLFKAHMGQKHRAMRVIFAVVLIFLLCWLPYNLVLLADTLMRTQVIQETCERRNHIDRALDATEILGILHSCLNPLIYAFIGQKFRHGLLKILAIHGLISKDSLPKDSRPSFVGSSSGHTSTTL

[18] = biological target: C-X-C chemokine receptor type 4 (Homo sapiens) (UniProt P61073); assay: Agonist activity at CXCR4 expressed in CHO cells at 10^-6 to 10^-5 M by cellular dielectric spectroscopy; format: functional, cell-based
[19] = test system: Salmonella typhimurium; assay: Mutagenic activity in Salmonella Typhimurium TA100-S9 by Ames test; format: toxicity, organism-based; conditions: salmonella enterica subsp. enterica serovar typhimurium
[20] = test system: Mus musculus; assay: Toxicity in CF-1 mouse assessed as mortality up to 100 mg/kg, ip administered as single dose measured at 48 hrs; format: organism-based; design: dose 100 mg/kg, route intraperitoneal; conditions: in vivo
[21] = test system: Salmonella typhimurium; assay: Mutagenic activity in Salmonella Typhimurium TA1535-S9 by Ames test; format: toxicity, organism-based; conditions: salmonella enterica subsp. enterica serovar typhimurium
[22] = test system: Salmonella typhimurium; assay: Mutagenic activity in Salmonella Typhimurium TA98-S9 by Ames test; format: toxicity, organism-based; conditions: salmonella enterica subsp. enterica serovar typhimurium
[23] = test system: PBMC; assay: Modulation of inflammation in human PBMC by transcriptional profiling; format: functional, cell-based

Sequence of C-C chemokine receptor type 2 (Homo sapiens) (P41597 whole entry, looked up): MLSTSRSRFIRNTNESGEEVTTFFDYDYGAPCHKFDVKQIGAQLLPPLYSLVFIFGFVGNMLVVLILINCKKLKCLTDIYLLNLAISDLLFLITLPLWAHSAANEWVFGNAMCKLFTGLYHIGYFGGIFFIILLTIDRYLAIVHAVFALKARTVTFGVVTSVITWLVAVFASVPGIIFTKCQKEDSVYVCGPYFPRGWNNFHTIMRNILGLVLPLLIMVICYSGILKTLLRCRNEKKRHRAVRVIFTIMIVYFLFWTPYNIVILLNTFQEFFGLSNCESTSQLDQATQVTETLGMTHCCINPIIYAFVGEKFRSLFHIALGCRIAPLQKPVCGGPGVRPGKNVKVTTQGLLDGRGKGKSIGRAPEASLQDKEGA
Sequence of C-X-C chemokine receptor type 4 (Homo sapiens) (P61073 whole entry): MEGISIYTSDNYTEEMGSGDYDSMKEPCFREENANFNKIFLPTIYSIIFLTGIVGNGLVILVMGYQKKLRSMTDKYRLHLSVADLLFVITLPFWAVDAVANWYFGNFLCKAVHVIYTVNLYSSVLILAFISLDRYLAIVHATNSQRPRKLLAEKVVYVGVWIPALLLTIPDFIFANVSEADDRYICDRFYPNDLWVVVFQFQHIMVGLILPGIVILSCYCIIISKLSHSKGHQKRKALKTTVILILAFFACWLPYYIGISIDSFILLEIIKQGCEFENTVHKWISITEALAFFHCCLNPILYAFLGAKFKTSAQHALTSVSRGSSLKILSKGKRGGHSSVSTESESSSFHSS

Question: How did the Activity [1] turn out when `Clc1ccc2c(NCCCCCCCNc3ccnc4cc(Cl)ccc34)ccnc2c1` was run?
Answer: inactive

Question: Which Activity [2] does the source give for `CCCCCCCCCCCCCC(=O)OC(CCCCCCCCCCC)CC(=O)N[C@H]1[C@H](OC[C@H]2O[C@H](O)[C@H](NC(=O)CC(O)CCCCCCCCCCC)[C@@H](OC(=O)CC(O)CCCCCCCCCCC)[C@@H]2O)O[C@H](CO)[C@@H](OP(=O)(O)O)[C@@H]1OC(=O)CC(CCCCCCCCCCC)OC(=O)CCCCCCCCCCCCC` (stereo not given in full) here?
Answer: Active

Question: And the Activity [3]?
Answer: Active

Question: What about the Activity [4] of the same compound?
Answer: Active

Question: Which Activity [1] does the source give for `Clc1ccc2c(NCCCNc3ccnc4cc(Cl)ccc34)ccnc2c1` here?
Answer: inactive

Question: `Clc1ccc2c(NCCCCCNc3ccnc4cc(Cl)ccc34)ccnc2c1` was tested. Which Activity [1] did it give?
Answer: inactive

Question: How did the Activity [1] turn out when `Clc1ccc2c(NCCCCCCCCCCCCNc3ccnc4cc(Cl)ccc34)ccnc2c1` was run?
Answer: inactive

Question: `Clc1ccc2c(NCCCCCCCCCCNc3ccnc4cc(Cl)ccc34)ccnc2c1` was tested. Which Activity [1] did it give?
Answer: inactive

Question: For `CCCCCCCCCCCCCCCC(=O)OCC(CSC[C@H](N)C(=O)N[C@@H](CO)C(=O)O)OC(=O)CCCCCCCCCCCCCCC` (stereo not given in full), which Activity [2] is on record?
Answer: Active

Question: And the Activity [3]?
Answer: Active

Question: What about the Activity [4] of the same compound?
Answer: Active

Question: How did the Activity [1] turn out when `Clc1ccc2c(NCCCCCCNc3ccnc4cc(Cl)ccc34)ccnc2c1` was run?
Answer: inactive

Question: Which Activity [1] does the source give for `CCN(CC)CCCC(C)Nc1ccnc2cc(Cl)ccc12` (stereo not given) here?
Answer: inactive

Question: For `Clc1ccc2c(NCCCCCCCCNc3ccnc4cc(Cl)ccc34)ccnc2c1`, which Activity [1] is on record?
Answer: inactive

Question: How did the Activity [1] turn out when `Clc1ccc2c(NCCCCNc3ccnc4cc(Cl)ccc34)ccnc2c1` was run?
Answer: inactive

Question: What about the Activity [5] of the same compound?
Answer: Active

Question: And the Activity [6]?
Answer: inactive

Question: What about the Activity [7] of the same compound?
Answer: inactive

Question: What about the Activity [8] of the same compound?
Answer: inactive

Question: And the Activity [9]?
Answer: inactive

Question: And the Activity [10]?
Answer: inactive

Question: And the Activity [11]?
Answer: inactive

Question: What about the Activity [12] of the same compound?
Answer: inactive

Question: What about the Activity [13] of the same compound?
Answer: inactive

Question: And the EC50 [14]?
Answer: 2000 nM

Question: What about the Activity [15] of the same compound?
Answer: inactive

Question: And the Activity [16]?
Answer: inactive

Question: What about the Activity [17] of the same compound?
Answer: inactive

Question: What about the Activity [18] of the same compound?
Answer: inactive

Question: And the Activity [2]?
Answer: Active

Question: And the Activity [3]?
Answer: Active

Question: What about the Activity [4] of the same compound?
Answer: Active

Question: And the Activity [19]?
Answer: Non-toxic

Question: And the Activity [20]?
Answer: Non-toxic

Question: And the Activity [21]?
Answer: Non-toxic

Question: And the Activity [22]?
Answer: Non-toxic

Question: What about the Activity [23] of the same compound?
Answer: inactive

Question: `CCCc1nc2c(N)nc3ccccc3c2s1` was tested. Which Activity [6] did it give?
Answer: Active

Question: And the Activity [7]?
Answer: Active

Question: What about the Activity [8] of the same compound?
Answer: Active

Question: And the Activity [9]?
Answer: Active

Question: And the Activity [10]?
Answer: Active

Question: And the Activity [11]?
Answer: Active

Question: What about the Activity [12] of the same compound?
Answer: Active

Question: `Clc1ccc2c(NCCNc3ccnc4cc(Cl)ccc34)ccnc2c1` was tested. Which Activity [1] did it give?
Answer: inactive

Reference: ChEMBL document CHEMBL1938311, “Potent adjuvantic activity of a CCR1-agonistic bis-quinoline” (Bioorg Med Chem Lett, 2012)
